The results in this text go back to ChEMBL document CHEMBL1201862, “PubChem BioAssay data set” (2004).

The nature of experiment [1]: viability of uninfected HEp-2 cells – cell-based, HTS, cytotoxicity control for RSV inhibitor project, dose response (AID 2410). The conditions noted are these: human respiratory syncytial virus. The format is functional.
The test system of another experiment is H4. In words: Luminescence Cell-Based Dose Response HTS to Identify Activators of 5'UTR Stem-Loop Driven Prion Protein mRNA Translation in H4 Neuroglioblastoma Cells. [Related pubchem assays: 1829 (Project Summary), 1814 (Primary HTS)]. Format: functional. The conditions noted are these: Homo sapiens.
The nature of experiment [2]: Luminescence Cell-Based Dose Response HTS to Identify Activators of Luciferase Translation or Activity in H4 […] Cells. [Related pubchem assays: 1829 (Project Summary), 1814 (Primary HTS)]. Format: functional.
Experiment [3] can be described thus: Luminescence Cell-Based Dose Confirmation HTS to Identify Activators of 5'UTR Stem-Loop Driven Alpha-Synuclein mRNA Translation in H4 Neuroglioblastoma Cells. [Related pubchem assays: 1829 (Project Summary), 1814 (Primary HTS)]. The format is functional.
Experiment [4] deals with T1, Replicative DNA helicase DnaB (Mycobacterium tuberculosis, UniProt P9WMR3).
T1 sequence (P9WMR3 whole entry): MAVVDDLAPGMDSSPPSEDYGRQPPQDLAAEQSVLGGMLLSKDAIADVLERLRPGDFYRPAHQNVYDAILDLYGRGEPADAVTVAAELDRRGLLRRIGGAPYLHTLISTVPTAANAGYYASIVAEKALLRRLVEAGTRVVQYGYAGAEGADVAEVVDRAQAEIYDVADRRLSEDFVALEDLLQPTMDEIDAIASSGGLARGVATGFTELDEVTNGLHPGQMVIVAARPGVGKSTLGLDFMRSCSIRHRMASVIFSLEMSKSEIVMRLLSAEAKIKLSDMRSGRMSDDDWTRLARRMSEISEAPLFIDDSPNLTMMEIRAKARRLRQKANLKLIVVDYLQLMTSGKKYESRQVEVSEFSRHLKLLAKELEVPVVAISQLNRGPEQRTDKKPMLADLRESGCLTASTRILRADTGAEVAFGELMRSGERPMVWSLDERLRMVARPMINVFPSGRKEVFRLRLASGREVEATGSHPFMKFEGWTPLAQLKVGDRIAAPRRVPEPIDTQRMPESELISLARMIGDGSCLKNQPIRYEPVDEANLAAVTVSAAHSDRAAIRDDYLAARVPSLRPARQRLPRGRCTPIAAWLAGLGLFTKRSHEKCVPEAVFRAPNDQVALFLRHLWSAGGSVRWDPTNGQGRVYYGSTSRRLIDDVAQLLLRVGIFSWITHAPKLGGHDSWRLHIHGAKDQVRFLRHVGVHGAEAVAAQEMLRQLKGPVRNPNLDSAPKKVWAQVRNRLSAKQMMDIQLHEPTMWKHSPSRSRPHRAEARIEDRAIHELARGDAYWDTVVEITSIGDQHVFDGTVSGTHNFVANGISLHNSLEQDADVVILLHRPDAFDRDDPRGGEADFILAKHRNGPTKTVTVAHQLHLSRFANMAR
Description: DnaB intein splicing inhibitors, dose response, biochemical, cell-free fluorescence (AID 449749). Format: functional.

Experiment [5] in a line: Trypanosoma cruzi growth suppression in host cells – NIH3T3 host cells, beta-gal luminescence, confirmation (AID 2044).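 Also: intracellular parasites grown in NIH/3T3 mouse fibroblasts as host cells; luminescent beta-galactosidase reporter signal from transgenic T. cruzi replicating inside host cells; inhibitors lower the luminescence signal.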 Format: functional, cell-based.
Experiment [6] in a line: NIH3T3 cell viability loss – ATP luminescence, mouse fibroblasts, counter-screen, dose response (AID 2010).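 Also: cells exposed to compound for about 90 hours before reading.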 The format is functional, cell-based.
In a further experiment the target is T2, Protein RecA (Mycobacterium tuberculosis, UniProt P9WHJ3).
T2 sequence (P9WHJ3 whole entry): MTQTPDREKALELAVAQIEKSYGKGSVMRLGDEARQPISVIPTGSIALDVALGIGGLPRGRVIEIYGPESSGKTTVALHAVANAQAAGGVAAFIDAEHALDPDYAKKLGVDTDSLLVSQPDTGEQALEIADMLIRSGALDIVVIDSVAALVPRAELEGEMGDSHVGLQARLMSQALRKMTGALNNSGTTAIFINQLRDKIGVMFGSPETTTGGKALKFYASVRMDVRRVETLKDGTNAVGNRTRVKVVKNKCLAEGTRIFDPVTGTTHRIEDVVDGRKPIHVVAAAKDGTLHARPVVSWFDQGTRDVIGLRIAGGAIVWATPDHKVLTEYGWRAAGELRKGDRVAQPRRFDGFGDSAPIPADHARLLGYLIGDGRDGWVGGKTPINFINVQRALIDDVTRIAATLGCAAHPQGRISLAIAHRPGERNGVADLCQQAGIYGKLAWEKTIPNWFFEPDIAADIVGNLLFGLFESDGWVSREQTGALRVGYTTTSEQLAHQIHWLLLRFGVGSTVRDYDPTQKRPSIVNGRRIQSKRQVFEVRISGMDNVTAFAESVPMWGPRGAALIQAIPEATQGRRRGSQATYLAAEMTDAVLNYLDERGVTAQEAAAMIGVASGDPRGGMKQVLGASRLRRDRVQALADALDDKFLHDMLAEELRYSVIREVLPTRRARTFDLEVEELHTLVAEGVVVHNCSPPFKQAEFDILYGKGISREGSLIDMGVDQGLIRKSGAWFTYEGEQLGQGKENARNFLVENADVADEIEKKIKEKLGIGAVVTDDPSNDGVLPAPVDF
Description: Fluorescence Cell-Free Homogeneous Dose Retest to Identify Inhibitors of RecA-Intein Splicing Activity. [Related pubchem assays (depositor defined):AID2097, AID2223, AID489010, AID492950]. Format: functional.

The target of a further experiment is T3, Streptokinase A (Streptococcus pyogenes serotype M1, UniProt P10520).
T3 sequence (P10520 whole entry): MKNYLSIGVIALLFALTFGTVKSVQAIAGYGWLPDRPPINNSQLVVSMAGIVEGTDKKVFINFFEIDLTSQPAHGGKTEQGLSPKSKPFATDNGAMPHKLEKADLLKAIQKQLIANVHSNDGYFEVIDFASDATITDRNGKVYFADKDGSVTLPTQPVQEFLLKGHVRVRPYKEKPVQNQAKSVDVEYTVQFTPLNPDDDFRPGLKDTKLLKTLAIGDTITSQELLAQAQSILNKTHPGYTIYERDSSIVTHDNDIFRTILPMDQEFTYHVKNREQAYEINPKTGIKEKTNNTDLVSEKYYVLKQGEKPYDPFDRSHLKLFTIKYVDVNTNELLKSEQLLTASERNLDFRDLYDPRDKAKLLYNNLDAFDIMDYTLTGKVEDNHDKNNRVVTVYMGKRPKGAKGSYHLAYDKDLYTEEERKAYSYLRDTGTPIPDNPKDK
Description: viability-normalized secreted streptokinase activity reduction – plasminogen activation absorbance, OD405, dose response (AID 1914).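 Also: secreted streptokinase activity via plasminogen activation per viability signal from cell pellet.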 The format is functional, Streptococcus pyogenes M1 GAS.

The test system of experiment [7] is Streptococcus sp. 'group A'. In words: Streptococcus pyogenes SK(-)GAS viability under kanamycin – luminescence, BacTiterGlo, confirmation, counter-screen for streptokinase expression inhibitor project, dose response (AID 1900). Format: functional, organism-based. (In general: A counterscreen serves to expose hits that act by an unwanted route or on another target.)

A further experiment relates to Streptococcus. In words: GAS UMAA2166 growth inhibition – luminescence, BacTiterGlo, counter-screen for streptokinase expression inhibitor project, dose response (AID 1915).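 Also: potency for reduction of bacterial viability or growth.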 Format: functional, organism-based.
The subject of the next experiment is INS1. Description: INS-1E survival protection against cytokine death – cell-based, luminescence, retest, dose response (AID 449756).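 Also: cell death triggered by IL-1 beta plus TNF-alpha plus IFN-gamma mixture; protective hits raise ATP signal compared with cytokine alone wells.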 The format is functional. The conditions noted are these: Rattus norvegicus, INS1.

The source made the active and inactive calls. Rule as the data show it, for most assays here: actives have a measured EC50 and inactives only a lower limit. Some results are limits rather than exact numbers.

As usually defined, the CC50 is the concentration at which the toxic effect on the cells reaches its halfway point. Turning to `Cc1ccccc1C1c2[nH]c3ccccc3c2CCN1C(=O)c1ccc(=O)n(C)n1` (stereo not given), the CC50 in experiment [1] was 20.4 µM (active).
The EC50 is the concentration giving half of the maximal effect. For `COc1ccccc1NS(=O)(=O)c1ccc(-c2cc(C)no2)s1`, the EC50 with H4 is > 120 µM (not active); in experiment [2], > 30 µM (not active); in experiment [3] it was > 120 µM (not active).
On to `NC(=O)c1sc2nc(N3CCOCC3)c3c(c2c1N)CCCC3`, for which the CC50 in experiment [1] is > 50 µM (active).
With `CCOC(=O)Nc1ccc2c(C)cc(=O)oc2c1`, the values for the EC50 (in the experiment with H4; in [2]; in [3]) were 12.9 µM (active), 30.9 µM (active) and 13 µM (active), respectively.
The matching figures for `c1ccc(-c2cc3n(c2)CCc2ccccc2-3)cc1`: 22.7 µM (active), 15.9 µM (active) and 10.7 µM (active).
`COc1ccc(S(=O)(=O)N2CCN(c3nc(-c4cccnc4)nc4ccccc34)CC2)cc1`: the CC50 in experiment [1] is 30.4 µM (active).
`Nn1c(SCc2ccccc2F)nnc1-c1cccnc1`: the EC50 with H4 was 33.4 µM (active); in experiment [2] it was 36.8 µM (active); in [3] it was 64.2 µM (active).
As to `Cc1noc(C)c1COC(=O)c1cc2ccccc2cc1O`, the CC50 in experiment [1] was 43.1 µM (active).
For `CC1CCc2[nH]c3ccc(C(=O)N(C)CC(=O)Nc4ccccc4Br)cc3c2C1` (stereo not given), the CC50 in experiment [1] was 22 µM (active).
The term AC50 denotes the concentration at which the activity in the assay is half-maximal. As to `CN1CCc2nc(SC(C(=O)O)c3ccccc3)c(C#N)c(-c3cccs3)c2C1` (stereo not given), the AC50 in [4] is > 380 µM (inactive). Besides, the results for the EC50 (in [5]; in experiment [6]; at Protein RecA) were 1.2 µM (active), > 30 µM (not active) and 12.3 µM (active), respectively.
Turning to `COc1ccc(OCc2cc(C(=O)N(C)Cc3cc(C4CC4)[nH]n3)no2)c(Cl)c1`, the EC50 was 37.8 µM (active) in the experiment with H4, 69.5 µM (active) in [2] and 28.2 µM (active) in [3].
Taken in the same sequence, the figures for `O=C(NCCC1=CCCCC1)c1cnccn1` were 11 µM (active), 4.95 µM (active) and 8.37 µM (active).
Consider `O=C(CCc1nnc2n(Cc3ccc(F)cc3)c(=O)c3ccccc3n12)N1CCN(c2ccccn2)CC1`, for which, in experiment [1], the CC50 is 37.4 µM (active).
`CC(=O)Cn1ncc(N2CCCCC2)c(Cl)c1=O`: the values for the EC50 (in the experiment with H4; in experiment [2]; in [3]) were 23.5 µM (active), 11.5 µM (active) and 24.6 µM (active), respectively.
As for `CCOC(=O)c1c(C)n(C)c2ccc(OCC(O)Cn3c(C)nc4ccccc43)cc12` (stereo not given), in experiment [1], the CC50 was 19.4 µM (active).
With `Cc1ccccc1C1=NC(c2ccc(F)cc2F)ON1` (stereo not given), the EC50 is 33.8 µM (active) in the experiment on H4, 8.1 µM (active) in experiment [2] and 33.6 µM (active) in experiment [3].
Taken in the same sequence, the figures for `CN1CCN(C2=C(Cl)C(=O)N(C3CCCCC3)C2=O)CC1` were > 120 µM (not active), 19.8 µM (active) and 8.46 µM (active).
Regarding `COc1cccc(-c2cc(O)[nH]n2)c1`, in [4], the AC50 was 2.51 µM (active). For the same compound, the EC50 on Protein RecA is 0.757 µM (active).
With `Cc1cccc(C(=O)NC2CCCCCCC2)c1`, the figures for the EC50 (in the experiment with H4; in [2]; in experiment [3]) were > 120 µM (not active), 11.9 µM (active) and 29.8 µM (active), respectively.
Turning to `CC1(C)CC(CCNC(=O)CCl)(c2ccccc2)CCO1` (stereo not given), in experiment [4], the AC50 was 179 µM (active). For the same compound, the EC50 at Protein RecA is 14.5 µM (active).
For `Cc1nc(OCc2ccccc2)c2sc3nc4c(cc3c2n1)COC(C)(C)C4`, the EC50 in the experiment on H4 was > 120 µM (not active); in [2] it was 7.5 µM (active); in experiment [3], 9.71 µM (active).
With `COc1ccc(Br)cc1[C@H]1[C@@H]2C=CCC[C@@]2(C)C(=O)N1Cc1ccccc1`, the AC50 in experiment [4] was > 380 µM (inactive). For the same compound, the EC50 on Streptokinase A is 37.6 µM (active); in [7], 7.12 µM (active); with Streptococcus, 11.1 µM (active); at Protein RecA, 26.7 µM (active).
Regarding `Cc1nc2cc(NC(=O)N3CCC(c4ccccc4)C3)ccc2n1C` (stereo not given), the EC50 was 27.4 µM (active) with H4, 17.7 µM (active) in experiment [2] and 46.9 µM (active) in [3].
Taken in the same sequence, the figures for `O=C(NNC(=S)Nc1ccccc1)c1cccs1` were 75.4 µM (active), 12.9 µM (active) and 11.2 µM (active).
With `Oc1c2c(nn1-c1ccccc1)CCSC2`, the AC50 in experiment [4] was 12 µM (active). In addition, the EC50 on Protein RecA is 13.7 µM (active).
The matching figures for `Cc1n[nH]c2c1C(c1ccsc1)C(C#N)=C(N)O2` (stereo not given): 11 µM (active) and 4.1 µM (active).
The matching figures for `CC(C)(C)c1[nH]nc2c1C(c1ccco1)C(C#N)=C(N)O2` (stereo not given): 3.88 µM (active) and 1.21 µM (active).
In the case of `CC1Nc2ncnc(N3CCc4ccccc4C3)c2N(Cc2ccc(Cl)cc2)C1=O` (stereo not given), the AC50 in [4] was > 380 µM (inactive). In addition, at Protein RecA, the EC50 is 30.9 µM (active).
For the compound `Cc1ccc(/C=N/N2CCN(Cc3ccccc3)CC2)s1`, the EC50 with H4 was > 120 µM (not active); in experiment [2], 11.9 µM (active); in experiment [3] it was 21 µM (active).
In the case of `N#Cc1nc(N)nc(N(c2ccccc2)c2ccccc2)n1`, the AC50 in experiment [4] is 39.8 µM (active). On Protein RecA, the EC50 is 66.6 µM (active).
Consider `CC1=C(CC(=O)c2ccc(Cl)cc2)C(=O)c2ccccc2C1=O`, for which the AC50 in [4] was 7.84 µM (active); in the experiment on INS1 it was 8.26 µM (active). Also, the EC50 on Protein RecA was 1.24 µM (active).
